According to paper PMC5654082 (Malaria Journal, 2017):
Counter-ions that a name gives are not always drawn.

What was measured:
[1] = biological target: T1, human OCT1 (Homo sapiens, UniProt O15245); assay: OCT1-mediated cellular import in transduced HEK293 cells (LC-MS/MS); type: cell-based
T1 construct: host or cells: HEK293, baculovirus transduction (CMV promoter), transient
T1 sequence (O15245 1-554): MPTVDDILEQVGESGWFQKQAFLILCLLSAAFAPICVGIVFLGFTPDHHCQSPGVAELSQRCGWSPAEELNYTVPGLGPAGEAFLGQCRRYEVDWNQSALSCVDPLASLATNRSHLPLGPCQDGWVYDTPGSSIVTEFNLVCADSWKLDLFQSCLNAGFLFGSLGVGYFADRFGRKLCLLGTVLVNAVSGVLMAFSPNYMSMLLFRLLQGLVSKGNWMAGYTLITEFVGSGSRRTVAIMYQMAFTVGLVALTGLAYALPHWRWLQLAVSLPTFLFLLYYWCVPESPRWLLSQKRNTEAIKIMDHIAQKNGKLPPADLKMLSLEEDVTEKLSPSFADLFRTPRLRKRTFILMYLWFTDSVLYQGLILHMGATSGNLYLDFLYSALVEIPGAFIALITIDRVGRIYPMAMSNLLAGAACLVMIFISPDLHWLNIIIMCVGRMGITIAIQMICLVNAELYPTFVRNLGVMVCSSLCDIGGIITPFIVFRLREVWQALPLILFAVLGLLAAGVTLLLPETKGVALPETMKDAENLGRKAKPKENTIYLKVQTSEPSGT
Description: (§1) HEK293 cells were modified to transiently express (a combination of) human OCT1, OCT2, MATE1, MATE2-K, or eYFP. Briefly, cDNA of the respective genes was cloned downstream of a CMV promoter into a baculovirus, of which passage three was used to transduce HEK293 cells. These cells were seeded in poly-D-lysine coated 24- or 96-wells plates and grown in a 37 °C incubator at 5% CO2. Growth was initiated at ~ 25% confluency using 375 or 125 μL cell and complete medium (DMEM + GlutaMAX™-I supplemented with 10% fetal bovine serum) suspension per well, respectively. After 24 h, cells were transduced with 30 µL virus (10 µL virus + 20 µL complete medium in case of 96-wells plates) or 2 × 15 µL virus for cells that required simultaneous expression of two transporters. Finally, 195 µL sodium butyrate (45 µL for 96-wells plates) was added to a final concentration of 2 mM to enhance protein expression.
HEK293 cells were seeded in 24-wells poly-D-lysine coated plates and transduced the subsequent day with OCT1 or OCT2 as described above. Three days following transduction, OCT1- or OCT2-mediated uptake of ten anti-malarials (AMO, ART, ATO, CQ, DHA, LUM, MQ, PQ, PG, and QN) was performed. NMQ served as a positive substrate for both OCT1 and OCT2 import. In short, cells were washed with 400 µL 37 °C HBSS-HEPES buffer followed by adding 150 µL HBSS buffer with 10 µM anti-malarial or NMQ to each well. After incubation for 15 min at 37 °C, import was stopped by washing with 400 µL ice-cold HBSS-HEPES buffer supplemented with 0.5% BSA. Following a second wash with 400 µL ice-cold HBSS-HEPES buffer, cells were lysed with 200 µL 50% (v/v) MeOH and 0.1% (v/v) formic acid (HCOOH) in water and samples were sent for quantification by mass spectrometry analysis (see “LC–MS/MS quantification of anti-malarials” section). […]
(§2) The affinity (KM) and maximum transport rate (Vmax) for OCT1 and OCT2 of PG were determined by analysing concentration-dependent uptake data from three independent experiments.
Import and export of PG and cycloguanil (CG) was assessed by single and double transduced HEK293 cells. […] Following the same procedure as for the cellular import assay described above, the import of 100 µM PG and CG was measured after 5 min incubation and data was plotted as mean pmol/mg/min ± SEM. […] Significant reduction in uptake (i.e. export by MATEs) was determined using ln transformation and a one-way repeated measures ANOVA with Dunnet’s post test.
Anti-malarial concentration in the cell lysates was quantified using an LC–MS/MS system consisting of a UPLC, a binary solvent manager, a vacuum degasser and an autosampler, coupled to a Xevo TQ-S micro triple quadrupole mass spectrometer. […]

[2] = biological target: T2, human OCT2 (Homo sapiens, UniProt O15244); assay: OCT2-mediated cellular import in transduced HEK293 cells (LC-MS/MS); type: cell-based
T2 construct: host or cells: HEK293, baculovirus transduction (CMV promoter), transient
T2 sequence (O15244 1-555): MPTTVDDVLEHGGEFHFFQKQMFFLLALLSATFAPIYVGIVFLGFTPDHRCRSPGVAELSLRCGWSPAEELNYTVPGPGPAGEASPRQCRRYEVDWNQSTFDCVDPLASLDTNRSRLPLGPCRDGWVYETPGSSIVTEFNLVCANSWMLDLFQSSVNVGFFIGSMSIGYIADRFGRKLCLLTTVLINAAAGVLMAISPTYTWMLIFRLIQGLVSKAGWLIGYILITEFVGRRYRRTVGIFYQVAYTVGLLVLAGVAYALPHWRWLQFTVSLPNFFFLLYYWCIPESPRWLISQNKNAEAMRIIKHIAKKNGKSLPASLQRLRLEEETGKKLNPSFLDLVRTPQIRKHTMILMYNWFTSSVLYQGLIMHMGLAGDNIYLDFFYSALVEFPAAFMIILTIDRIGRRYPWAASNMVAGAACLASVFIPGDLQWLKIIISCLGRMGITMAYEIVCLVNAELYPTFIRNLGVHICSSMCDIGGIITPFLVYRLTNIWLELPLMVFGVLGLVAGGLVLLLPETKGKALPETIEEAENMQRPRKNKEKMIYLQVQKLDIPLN
Description: as §1
HEK293 cells were seeded in 24-wells poly-D-lysine coated plates and transduced the subsequent day with OCT1 or OCT2 as described above. Three days following transduction, OCT1- or OCT2-mediated uptake of ten anti-malarials (AMO, ART, ATO, CQ, DHA, LUM, MQ, PQ, PG, and QN) was performed. […] Following a second wash with 400 µL ice-cold HBSS-HEPES buffer, cells were lysed with 200 µL 50% (v/v) MeOH and 0.1% (v/v) formic acid (HCOOH) in water and samples were sent for quantification by mass spectrometry analysis (see “LC–MS/MS quantification of anti-malarials” section). […]
as §2
Import and export of PG and cycloguanil (CG) was assessed by single and double transduced HEK293 cells. […] Following the same procedure as for the cellular import assay described above, the import of 100 µM PG and CG was measured after 5 min incubation and data was plotted as mean pmol/mg/min ± SEM. […] Significant reduction in uptake (i.e. export by MATEs) was determined using ln transformation and a one-way repeated measures ANOVA with Dunnet’s post test. […]

Row | Structure (SMILES) | Uptake by OCT1, percentage of mock-transduced control ([1]; 10 µM, 15 min, 37 °C) | Uptake, percentage of eYFP control cells ([1]; cells co-transduced with eYFP and OCT1, 1 µM, 1 min, pH 7.4) | Uptake by OCT2, percentage of mock-transduced control ([2]; 10 µM, 15 min, 37 °C) | Uptake by OCT1 ([1]; 100 µM, 5 min) | Uptake by OCT2 ([2]; 100 µM, 5 min)
1 | [H]/N=C(\N/C(=N/[H])Nc1ccc(Cl)cc1)NC(C)C [Proguanil, proguanil hydrochloride] | 301 ± 25% | 850 ± 60% | 207 ± 17% |  | 
2 | CC1(C)N=C(N)N=C(N)N1c1ccc(Cl)cc1 [Cycloguanil] |  |  |  | 139 ± 9 pmol/mg/min | 118 ± 18 pmol/mg/min
